Test results taken from patent US20130337564A1, “Treatment of Pluripotent Cells” (Janssen Biotech, Inc., priority 2012, published 2013).
Values joined by “and” are separate entries in the source; they are usually repeats but may differ in a detail not shown here. Equal values may be shown once.

Legend:
Assay type in all cases: cell-based
[1] = tested on: Sox17 expression in human embryonic stem cells (H9 line); test: High content screening assay: Sox17 protein expression (differentiation); settings: for fold induction at 10 µM: Homo sapiens, Embryonic stem cell, read-out: SOX17 Expression, Fold over Wnt 3a/AA control; for fold induction at 10 µM / SOX17 Expression, Fold over Wnt 3a/AA control: 10 μM test compound with 100 ng/ml activin A on days 1-2, H9, total intensity by IN Cell Analyzer, strong and moderate hits; for SOX-17 Expression Fold over Wnt 3a/AA control: total intensity normalised to Wnt 3a/AA control
Procedure, shortened: (§1)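 H9 hESCs on MATRIGEL treated days 1-2 with 10 μM compound in DMEM:F12, 0.5% FCS, 100 ng/ml activin A; days 3-4 with 2% FCS plus activin A without compound. Fixed cells immunostained for Sox17 or HNF-3beta with Draq5 nuclear counterstain. Cell number and staining intensity quantified by high-content imaging, 12 fields/well.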

[2] = tested on: HNF-3beta expression in human embryonic stem cells (H9 line); test: High content screening assay: HNF-3beta protein expression (differentiation); settings: for HNF-3b Expression Fold over Wnt 3a/AA control: total intensity normalised to Wnt 3a/AA control
Procedure, shortened: as §1

[3] = tested on: cells expressing pluripotency markers derived from human embryonic stem cells; test: MTS viability (toxicity) assay of cells expressing pluripotency markers; parameters: Raw data (duplicate), first replicate / Average: unit not given here; settings: for viability at 10 µM: Homo sapiens, Embryonic stem cell; for viability at 10 µM / % Control: viability of cells expressing pluripotency markers, relative to control; for Average of raw data (duplicate), optical density at 490 nm: MTS on day 4
Procedure, shortened: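 Cells expressing pluripotency markers, derived from human embryonic stem cells, were plated at 20,000 cells per well in 96-well clear-bottom plates and cultured overnight. Test compounds were applied in assay medium on days 1 and 2, and compound-free medium on days 3 and 4. On day 4, MTS was added and optical density at 490 nm was read in duplicate.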

[4] = MTS viability assay raw reading, replicate 1
[5] = MTS viability assay raw reading, replicate 2
[6] = average of duplicate MTS raw readings
[7] = 10 μM test compound with 100 ng/ml activin A on days 1-2, H9, total intensity by IN Cell Analyzer, strong and moderate hits

COc1ccccc1C1=C(c2cn(CCCNC(C)=O)c3ncccc23)C(=O)NC1=O [Compound 27, N-[3-(3-{4-[2-(Methyloxy)phenyl]-2,5-dioxo-2,5-dihydro-1H-pyrrol-3-yl}-1H-pyrrolo[2,3-b]pyridin-1-yl)propyl]acetamide]
SOX-17 Expression Total Intensity [1]: 125443 | HNF-3b Expression Total Intensity [2]: 0 | viability at 10 µM [3]: 7.2% | Raw data (duplicate), first replicate [3, 4]: 0.160 | Raw data (duplicate), second replicate [3, 5]: 0.186 | Average [3, 6]: 0.173

O=C1NC(=O)C(c2cn(CCCO)c3ncccc23)=C1c1cnccn1 [Compound 47, 3-[1-(3-Hydroxypropyl)-1H-pyrrolo[2,3-b]pyridin-3-yl]-4-pyrazin-2-yl-1H-pyrrole-2,5-dione]
fold induction at 10 µM [1]: 1.02 | SOX-17 Expression Total Intensity [1]: 382680000 | fold induction at 10 µM ([2]; Homo sapiens, Embryonic stem cell, 10 μM test compound with 100 ng/ml activin A on days 1-2, H9, total intensity by IN Cell Analyzer, strong and moderate hits, read-out: HNF3β Expression, Fold over Wnt 3a/AA control): 1.22 | HNF-3b Expression Total Intensity [2]: 560475000 | viability at 10 µM [3]: 104%

O=C1NC(=O)C(c2cn(CCOCCOCCNC3CCCc4ccccc43)c3ccccc23)=C1c1cn(CCNC2CCCc3ccccc32)c2ccccc12 (stereo not drawn) [Compound 144, 3-{1-[2-(1,2,3,4-Tetrahydronaphthalen-1-ylamino)ethyl]-1H-indol-3-yl}-4-(1-{2-[(2-{[2-(1,2,3,4-tetrahydronaphthalen-1-ylamino)ethyl]oxy}ethyl)oxy]ethyl}-1H-indol-3-yl)-1H-pyrrole-2,5-dione]
SOX-17 Expression Total Intensity [1]: 339840000 | HNF-3b Expression Total Intensity [2]: 231745000 | viability at 10 µM [3]: 106% | Raw data (duplicate), first replicate [3, 4]: 0.840 | Raw data (duplicate), second replicate [3, 5]: 0.832 | Average [3, 6]: 0.836 | Average of raw data (duplicate), optical density at 490 nm ([3]; cmpd conc 2.5 μM): 0.2898 | Average of raw data (duplicate), optical density at 490 nm ([3]; cmpd conc 5 μM): 0.1473 | Average of raw data (duplicate), optical density at 490 nm ([3]; cmpd conc 10 μM): 0.1464

CN(C)c1cccc(-n2cc(C3=C(c4nn(CCO)c5ccccc45)C(=O)NC3=O)c3ccccc32)c1 [Compound 145, 3-{1-[3-(Dimethylamino)phenyl]-1H-indol-3-yl}-4-[1-(2-hydroxyethyl)-1H-indazol-3-yl]-1H-pyrrole-2,5-dione]
SOX-17 Expression Total Intensity [1]: 238555000 | HNF-3b Expression Total Intensity [2]: 82808745 | viability at 10 µM [3]: 105% | Raw data (duplicate), first replicate [3, 4]: 0.831 | Raw data (duplicate), second replicate [3, 5]: 0.822 | Average [3, 6]: 0.826 | Average of raw data (duplicate), optical density at 490 nm ([3]; cmpd conc 2.5 μM): 0.7608 | Average of raw data (duplicate), optical density at 490 nm ([3]; cmpd conc 5 μM): 0.5871 | Average of raw data (duplicate), optical density at 490 nm ([3]; cmpd conc 10 μM): 0.1277

CN(C)c1ccc(-n2cc(C3=C(c4nn(CCO)c5ccccc45)C(=O)NC3=O)c3cc(Cl)ccc32)cn1 [Compound 148, 3-{5-Chloro-1-[6-(dimethylamino)pyridin-3-yl]-1H-indol-3-yl}-4-[1-(2-hydroxyethyl)-1H-indazol-3-yl]-1H-pyrrole-2,5-dione]
fold induction at 10 µM [1]: 0.719 | SOX-17 Expression Total Intensity [1]: 699160000 | HNF-3b Expression Total Intensity [2]: 248855000 | viability at 10 µM [3]: 88.8% | Raw data (duplicate), first replicate [3, 4]: 0.753 | Raw data (duplicate), second replicate [3, 5]: 0.687 | Average [3, 6]: 0.720 | Average of raw data (duplicate), optical density at 490 nm ([3]; cmpd conc 2.5 μM): 0.2669 | Average of raw data (duplicate), optical density at 490 nm ([3]; cmpd conc 5 μM): 0.1559 | Average of raw data (duplicate), optical density at 490 nm ([3]; cmpd conc 10 μM): 0.1537

COC(=O)c1cncc(-n2cc(C3=C(c4nn(CCO)c5ccccc45)C(=O)NC3=O)c3cc(Cl)ccc32)c1 [Compound 150, Methyl 5-(5-chloro-3-{4-[1-(2-hydroxyethyl)-1H-indazol-3-yl]-2,5-dioxo-2,5-dihydro-1H-pyrrol-3-yl}-1H-indol-1-yl)pyridine-3-carboxylate]
SOX-17 Expression Total Intensity [1]: 351070000 | HNF-3b Expression Total Intensity [2]: 288075000 | viability at 10 µM [3]: 81.7% | Average ([3]; MTS viability readout, average of duplicate raw data): 0.673 | Raw data (duplicate), first replicate ([3]; MTS viability readout, raw value of replicate 1): 0.668 | Raw data (duplicate), second replicate ([3]; MTS viability readout, raw value of replicate 2): 0.678 | Average of raw data (duplicate), optical density at 490 nm ([3]; cmpd conc 2.5 μM): 0.7630 | Average of raw data (duplicate), optical density at 490 nm ([3]; cmpd conc 5 μM): 0.6972 | Average of raw data (duplicate), optical density at 490 nm ([3]; cmpd conc 10 μM): 0.2259

OCCC#Cc1nc(-c2ccc(F)cc2)c(-c2ccncc2)n1CCCc1ccccc1 [Compound 158, 4-[4-(4-Fluorophenyl)-1-(3-phenylpropyl)-5-pyridin-4-yl-1H-imidazol-2-yl]but-3-yn-1-ol]
SOX-17 Expression Total Intensity [1]: 324450000 | HNF-3b Expression Total Intensity [2]: 269025000 | viability at 10 µM [3]: 77.7% | Raw data (duplicate), first replicate [3, 4]: 0.629 | Raw data (duplicate), second replicate [3, 5]: 0.659 | Average [3, 6]: 0.644 | Average of raw data (duplicate), optical density at 490 nm ([3]; cmpd conc 2.5 μM): 0.7971 | Average of raw data (duplicate), optical density at 490 nm ([3]; cmpd conc 5 μM): 0.8183 | Average of raw data (duplicate), optical density at 490 nm ([3]; cmpd conc 10 μM): 0.6052

O=C1NC(=O)C2=C1c1cn(c3ccccc13)CCOCCOCCOCCn1cc2c2ccccc21 [Compound 163, 6,7,9,10,12,13,15,16-Octahydro-23H-5,26:17,22-di(metheno)dibenzo[k,q]pyrrolo[3,4-n][1,4,7,10,19]trioxadiazacyclohenicosine-23,25(24H)-dione]
SOX17 Expression, Fold over Wnt 3a/AA control [1]: 0.9266 Fold over Wnt 3a/AA control | SOX-17 Expression Total Intensity [1]: 28506437 | SOX-17 Expression Fold over Wnt 3a/AA control [1]: 0.9266 fold | HNF3β Expression, Fold over Wnt 3a/AA control [2, 7]: 3.1115 Fold over Wnt 3a/AA control | HNF-3b Expression Total Intensity [2]: 85245671 | HNF-3b Expression Fold over Wnt 3a/AA control [2]: 3.1115 fold | Raw data (duplicate), first replicate [3, 4]: 0.678 | Raw data (duplicate), second replicate [3, 5]: 0.661 | Average [3, 6]: 0.670 | % Control [3]: 80.8%

O=C1NC(=O)C2=C1c1cn(c3ccccc13)CCOCCOCCn1cc2c2ccccc21 [Compound 164, 6,7,9,10,12,13-Hexahydro-20H-5,23:14,19-di(metheno)dibenzo[h,n]pyrrolo[3,4-k][1,4,7,16]dioxadiazacyclooctadecine-20,22(21H)-dione]
SOX-17 Expression Total Intensity [1]: 85949 | SOX-17 Expression Fold over Wnt 3a/AA control [1]: 0.0028 fold | HNF-3b Expression Total Intensity [2]: 1300640 | HNF-3b Expression Fold over Wnt 3a/AA control [2]: 0.0475 fold | Raw data (duplicate), first replicate [3, 4]: 0.603 | Raw data (duplicate), second replicate [3, 5]: 0.584 | Average [3, 6]: 0.593 | % Control [3]: 69.4%

O=C1NC(=O)C2=C1c1cn(c3ccccc13)CCOCCOCCOCCOCCn1cc2c2ccccc21 [Compound 165, 10,11,13,14,16,17,19,20,22,23-Decahydro-1H-9,4:24,29-di(metheno)dibenzo[n,t]pyrrolo[3,4-q][1,4,7,10,13,22]tetraoxadiazacyclotetracosine-1,3(2H)-dione]
SOX17 Expression, Fold over Wnt 3a/AA control [1]: 1.0630 Fold over Wnt 3a/AA control | SOX-17 Expression Total Intensity [1]: 32703235 | SOX-17 Expression Fold over Wnt 3a/AA control [1]: 1.0630 fold | HNF3β Expression, Fold over Wnt 3a/AA control [2, 7]: 5.4668 Fold over Wnt 3a/AA control | HNF-3b Expression Total Intensity [2]: 149772525 | HNF-3b Expression Fold over Wnt 3a/AA control [2]: 5.4668 fold | Raw data (duplicate), first replicate [3, 4]: 0.690 | Raw data (duplicate), second replicate [3, 5]: 0.674 | Average [3, 6]: 0.682 | % Control [3]: 83.3%

O=C(Nc1ccc(C(=O)N2CC3CSCCN3Cc3ccccc32)c(Cl)c1)c1cc(Cl)cc(Cl)c1 (stereo not drawn) [Compound 166, 3,5-Dichloro-N-[3-chloro-4-(3,4,12,12a-tetrahydro-1H-[1,4]thiazino[3,4-c][1,4]benzodiazepin-11(6H)-ylcarbonyl)phenyl]benzamide]
SOX-17 Expression Total Intensity [1]: 11388240 | HNF-3b Expression Total Intensity [2]: 10743082 | viability at 10 µM [3]: 74.8% | Raw data (duplicate), first replicate [3, 4]: 0.615 | Raw data (duplicate), second replicate [3, 5]: 0.635 | Average [3, 6]: 0.625

O=C1NC(=O)C2=C1c1cn(c3ncccc13)CCOCCOCCOCCOCCOCCn1cc2c2cccnc21 [Compound 168, 10,11,13,14,16,17,19,20,22,23,25,26-Dodecahydro-1H-9,4:27,32-di(metheno)dipyrido[2,3-q:3′,2′-w]pyrrolo[3,4-t][1,4,7,10,13,16,25]pentaoxadiazacycloheptacosine-1,3(2H)-dione]
SOX-17 Expression Total Intensity [1]: 2574279 | SOX-17 Expression Fold over Wnt 3a/AA control [1]: 0.0837 fold | HNF-3b Expression Total Intensity [2]: 2584708 | HNF-3b Expression Fold over Wnt 3a/AA control [2]: 0.0943 fold | Raw data (duplicate), first replicate [3, 4]: 0.610 | Raw data (duplicate), second replicate [3, 5]: 0.628 | Average [3, 6]: 0.619 | % Control [3]: 73.9%

O=C1NC(=O)C2=C1c1cn(c3ncccc13)CCOCCOCCOCCOCCn1cc2c2cccnc21 [Compound 169]
SOX17 Expression, Fold over Wnt 3a/AA control [1]: 1.0342 Fold over Wnt 3a/AA control | HNF3β Expression, Fold over Wnt 3a/AA control [2, 7]: 0.9520 Fold over Wnt 3a/AA control | Raw data (duplicate), first replicate [3, 4]: 0.681 and 0.636 | Raw data (duplicate), second replicate [3, 5]: 0.698 and 0.621 | Average [3, 6]: 0.689 and 0.629 | % Control [3]: 84.5% and 75.4%

CN(C)CCCn1cc(C2=C(c3cccc4ccccc34)C(=O)NC2=O)c2cccnc21 [Compound 175, 3-{1-[3-(Dimethylamino)propyl]-1H-pyrrolo[2,3-b]pyridin-3-yl}-4-naphthalen-1-yl-1H-pyrrole-2,5-dione]
SOX-17 Expression Total Intensity [1]: 0 | HNF-3b Expression Total Intensity [2]: 1605538 | viability at 10 µM [3]: 3% | Raw data (duplicate), first replicate [3, 4]: 0.135 | Raw data (duplicate), second replicate [3, 5]: 0.158 | Average [3, 6]: 0.146
